Laboratory results reported in patent US9493436B2, “Tyrosine phosphatase inhibitors and uses thereof to modulate the activity of enzymes involved in the pathology of Mycobacterium tuberculosis” (priority 2011, dated 2016).

Experiments:
VHX = target: T1, VHX (Homo sapiens, UniProt Q9NRW4); assay: biochemical; type: biochemical
T1 sequence (Q9NRW4 1-184): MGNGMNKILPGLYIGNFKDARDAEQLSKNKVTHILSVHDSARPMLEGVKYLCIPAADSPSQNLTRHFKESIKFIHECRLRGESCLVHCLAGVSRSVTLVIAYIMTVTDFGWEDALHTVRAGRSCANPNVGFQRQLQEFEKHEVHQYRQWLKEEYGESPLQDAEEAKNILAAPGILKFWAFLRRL

Meg2 = Meg2 (Homo sapiens, UniProt P43378); conditions: read-out: IC50 (μM) Meg2
LMWPTP = LMWPTP (Homo sapiens, UniProt P24666); assay: PTP selectivity panel: LMWPTP; type: biochemical
PTP1B = target: T2, PTP1B (Homo sapiens, UniProt P18031); assay: biochemical; type: biochemical
T2 sequence (P18031 1-435): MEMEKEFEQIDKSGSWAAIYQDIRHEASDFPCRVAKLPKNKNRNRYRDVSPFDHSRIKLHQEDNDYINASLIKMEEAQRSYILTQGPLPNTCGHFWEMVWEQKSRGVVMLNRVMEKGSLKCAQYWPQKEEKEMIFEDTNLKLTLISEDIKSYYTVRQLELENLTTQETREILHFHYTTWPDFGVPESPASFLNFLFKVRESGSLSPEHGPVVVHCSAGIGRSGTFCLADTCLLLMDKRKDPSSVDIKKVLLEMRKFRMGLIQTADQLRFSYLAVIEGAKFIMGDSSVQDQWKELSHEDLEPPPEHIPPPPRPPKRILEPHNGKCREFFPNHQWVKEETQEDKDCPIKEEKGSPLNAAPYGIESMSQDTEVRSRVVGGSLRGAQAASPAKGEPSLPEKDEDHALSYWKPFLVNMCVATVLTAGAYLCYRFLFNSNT

CD45 = target: T3, CD45 (Homo sapiens, UniProt P08575); assay: biochemical; type: biochemical
T3 sequence (P08575 26-1306): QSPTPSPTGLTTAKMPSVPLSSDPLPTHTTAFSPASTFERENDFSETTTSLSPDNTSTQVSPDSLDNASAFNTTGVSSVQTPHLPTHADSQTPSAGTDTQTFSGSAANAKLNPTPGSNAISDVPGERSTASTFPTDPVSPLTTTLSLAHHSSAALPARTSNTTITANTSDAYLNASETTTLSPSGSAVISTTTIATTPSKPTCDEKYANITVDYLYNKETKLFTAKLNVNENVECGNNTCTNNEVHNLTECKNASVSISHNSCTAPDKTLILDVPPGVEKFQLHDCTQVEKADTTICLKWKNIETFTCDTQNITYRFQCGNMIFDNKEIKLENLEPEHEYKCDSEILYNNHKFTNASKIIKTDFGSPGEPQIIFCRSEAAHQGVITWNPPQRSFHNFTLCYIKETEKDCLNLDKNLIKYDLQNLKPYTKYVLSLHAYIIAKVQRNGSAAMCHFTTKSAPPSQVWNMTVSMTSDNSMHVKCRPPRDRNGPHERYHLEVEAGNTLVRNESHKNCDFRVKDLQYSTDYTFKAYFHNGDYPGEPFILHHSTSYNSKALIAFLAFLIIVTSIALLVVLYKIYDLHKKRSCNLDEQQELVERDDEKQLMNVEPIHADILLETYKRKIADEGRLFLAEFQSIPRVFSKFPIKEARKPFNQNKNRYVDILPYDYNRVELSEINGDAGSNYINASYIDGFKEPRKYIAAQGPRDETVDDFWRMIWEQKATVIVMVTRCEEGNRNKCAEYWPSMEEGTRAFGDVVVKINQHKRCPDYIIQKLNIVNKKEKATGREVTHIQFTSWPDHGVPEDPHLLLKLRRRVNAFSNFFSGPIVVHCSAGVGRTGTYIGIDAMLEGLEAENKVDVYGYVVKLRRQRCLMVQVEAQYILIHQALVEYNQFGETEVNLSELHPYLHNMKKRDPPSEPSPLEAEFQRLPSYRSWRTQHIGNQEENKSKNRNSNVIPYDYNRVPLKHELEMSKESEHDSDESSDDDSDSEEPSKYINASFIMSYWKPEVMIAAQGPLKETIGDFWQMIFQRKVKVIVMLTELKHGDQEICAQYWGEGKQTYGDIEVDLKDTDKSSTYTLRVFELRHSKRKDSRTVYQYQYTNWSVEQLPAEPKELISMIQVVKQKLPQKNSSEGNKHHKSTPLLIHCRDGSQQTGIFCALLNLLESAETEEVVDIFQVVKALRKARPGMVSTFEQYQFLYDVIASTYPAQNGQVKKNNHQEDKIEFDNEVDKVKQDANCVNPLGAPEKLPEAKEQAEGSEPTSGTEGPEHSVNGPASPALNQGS

SHP2 = SHP2 (Homo sapiens, UniProt Q06124); conditions: read-out: IC50 (μM) SHP2
FAP1 = FAP1 (Homo sapiens, UniProt Q12923); assay: biochemical; type: biochemical
SHP2-D2C = SHP2-D2C (Homo sapiens, UniProt Q06124); assay: biochemical; type: biochemical
HePTP = target: T4, HePTP (Homo sapiens, UniProt P35236); assay: biochemical; type: biochemical
T4 sequence (P35236 1-360): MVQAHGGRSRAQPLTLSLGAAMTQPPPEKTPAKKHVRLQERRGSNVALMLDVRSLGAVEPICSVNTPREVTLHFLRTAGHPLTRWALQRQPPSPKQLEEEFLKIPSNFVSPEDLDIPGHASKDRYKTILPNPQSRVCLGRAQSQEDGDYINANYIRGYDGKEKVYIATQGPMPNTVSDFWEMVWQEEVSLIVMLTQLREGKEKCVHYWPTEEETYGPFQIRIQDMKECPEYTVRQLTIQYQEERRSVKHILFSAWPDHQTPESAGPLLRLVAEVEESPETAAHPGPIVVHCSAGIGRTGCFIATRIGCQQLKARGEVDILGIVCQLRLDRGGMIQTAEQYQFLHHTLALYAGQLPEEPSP

Sequence of FAP1 (Q12923 whole entry, species assumed): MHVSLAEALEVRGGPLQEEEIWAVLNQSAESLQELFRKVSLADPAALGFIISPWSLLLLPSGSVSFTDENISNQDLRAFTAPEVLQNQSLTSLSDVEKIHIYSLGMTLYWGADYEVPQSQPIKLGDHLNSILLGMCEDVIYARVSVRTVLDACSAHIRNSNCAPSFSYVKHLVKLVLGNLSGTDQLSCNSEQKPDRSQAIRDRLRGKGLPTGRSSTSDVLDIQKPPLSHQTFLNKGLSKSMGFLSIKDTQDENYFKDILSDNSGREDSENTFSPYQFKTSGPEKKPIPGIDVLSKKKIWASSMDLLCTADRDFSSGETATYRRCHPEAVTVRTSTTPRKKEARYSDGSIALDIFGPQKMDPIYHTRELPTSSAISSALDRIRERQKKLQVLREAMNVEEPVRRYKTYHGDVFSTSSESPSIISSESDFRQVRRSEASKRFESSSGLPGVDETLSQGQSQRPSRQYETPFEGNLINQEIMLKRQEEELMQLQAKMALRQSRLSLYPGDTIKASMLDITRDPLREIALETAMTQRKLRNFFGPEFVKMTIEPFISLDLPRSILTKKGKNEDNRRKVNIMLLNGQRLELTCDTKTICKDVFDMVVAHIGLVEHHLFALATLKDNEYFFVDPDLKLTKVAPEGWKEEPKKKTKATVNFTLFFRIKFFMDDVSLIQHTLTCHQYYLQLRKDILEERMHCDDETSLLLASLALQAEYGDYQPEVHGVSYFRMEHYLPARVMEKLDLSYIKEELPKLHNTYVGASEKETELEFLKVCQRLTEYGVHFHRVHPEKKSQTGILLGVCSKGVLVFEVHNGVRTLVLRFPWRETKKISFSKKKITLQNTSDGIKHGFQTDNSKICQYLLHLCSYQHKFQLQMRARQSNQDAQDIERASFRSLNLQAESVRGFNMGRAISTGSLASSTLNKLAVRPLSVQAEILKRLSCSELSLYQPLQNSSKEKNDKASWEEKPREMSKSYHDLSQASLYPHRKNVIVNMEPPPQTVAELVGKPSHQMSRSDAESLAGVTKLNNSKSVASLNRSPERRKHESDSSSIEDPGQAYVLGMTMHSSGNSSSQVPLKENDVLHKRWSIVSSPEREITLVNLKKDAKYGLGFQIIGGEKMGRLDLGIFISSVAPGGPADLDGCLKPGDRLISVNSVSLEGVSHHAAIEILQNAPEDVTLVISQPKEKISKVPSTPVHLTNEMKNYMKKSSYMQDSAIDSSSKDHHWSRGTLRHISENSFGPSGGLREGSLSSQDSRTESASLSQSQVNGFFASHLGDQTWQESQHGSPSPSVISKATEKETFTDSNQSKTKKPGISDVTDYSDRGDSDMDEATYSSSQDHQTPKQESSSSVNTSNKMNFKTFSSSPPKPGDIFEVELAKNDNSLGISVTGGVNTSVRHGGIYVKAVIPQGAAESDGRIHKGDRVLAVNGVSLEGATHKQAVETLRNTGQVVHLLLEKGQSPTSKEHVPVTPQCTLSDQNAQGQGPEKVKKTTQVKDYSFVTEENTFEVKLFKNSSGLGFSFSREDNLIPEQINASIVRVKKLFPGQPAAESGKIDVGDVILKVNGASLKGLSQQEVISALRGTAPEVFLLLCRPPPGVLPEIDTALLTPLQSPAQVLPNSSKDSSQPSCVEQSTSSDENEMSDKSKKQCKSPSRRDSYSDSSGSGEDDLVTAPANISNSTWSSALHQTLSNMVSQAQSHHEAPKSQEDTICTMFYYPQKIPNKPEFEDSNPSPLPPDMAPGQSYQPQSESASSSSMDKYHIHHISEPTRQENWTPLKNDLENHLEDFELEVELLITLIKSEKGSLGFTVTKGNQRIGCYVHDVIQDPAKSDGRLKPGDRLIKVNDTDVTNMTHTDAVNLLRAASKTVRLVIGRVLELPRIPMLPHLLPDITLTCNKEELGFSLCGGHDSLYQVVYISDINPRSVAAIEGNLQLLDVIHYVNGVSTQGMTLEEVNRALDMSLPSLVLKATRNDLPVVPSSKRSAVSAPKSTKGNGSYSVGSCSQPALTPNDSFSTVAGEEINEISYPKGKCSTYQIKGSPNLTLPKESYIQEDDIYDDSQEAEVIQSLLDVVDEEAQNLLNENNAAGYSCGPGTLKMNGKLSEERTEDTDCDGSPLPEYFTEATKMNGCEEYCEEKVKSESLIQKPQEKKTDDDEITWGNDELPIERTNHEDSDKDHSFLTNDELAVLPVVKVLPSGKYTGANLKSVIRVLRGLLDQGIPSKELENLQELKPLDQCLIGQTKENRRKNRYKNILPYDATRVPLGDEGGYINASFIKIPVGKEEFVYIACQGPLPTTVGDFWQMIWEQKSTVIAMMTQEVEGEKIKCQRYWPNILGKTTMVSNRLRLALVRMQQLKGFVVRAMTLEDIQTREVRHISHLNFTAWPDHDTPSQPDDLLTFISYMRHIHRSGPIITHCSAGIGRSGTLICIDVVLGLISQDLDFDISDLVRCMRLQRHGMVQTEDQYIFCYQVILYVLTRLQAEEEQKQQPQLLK
Sequence of LMWPTP (P24666 whole entry, species assumed): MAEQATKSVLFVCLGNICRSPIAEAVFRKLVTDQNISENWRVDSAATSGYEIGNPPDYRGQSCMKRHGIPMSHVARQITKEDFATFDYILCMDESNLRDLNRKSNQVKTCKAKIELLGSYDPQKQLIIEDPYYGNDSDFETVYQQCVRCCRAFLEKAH
Sequence of Meg2 (P43378 whole entry): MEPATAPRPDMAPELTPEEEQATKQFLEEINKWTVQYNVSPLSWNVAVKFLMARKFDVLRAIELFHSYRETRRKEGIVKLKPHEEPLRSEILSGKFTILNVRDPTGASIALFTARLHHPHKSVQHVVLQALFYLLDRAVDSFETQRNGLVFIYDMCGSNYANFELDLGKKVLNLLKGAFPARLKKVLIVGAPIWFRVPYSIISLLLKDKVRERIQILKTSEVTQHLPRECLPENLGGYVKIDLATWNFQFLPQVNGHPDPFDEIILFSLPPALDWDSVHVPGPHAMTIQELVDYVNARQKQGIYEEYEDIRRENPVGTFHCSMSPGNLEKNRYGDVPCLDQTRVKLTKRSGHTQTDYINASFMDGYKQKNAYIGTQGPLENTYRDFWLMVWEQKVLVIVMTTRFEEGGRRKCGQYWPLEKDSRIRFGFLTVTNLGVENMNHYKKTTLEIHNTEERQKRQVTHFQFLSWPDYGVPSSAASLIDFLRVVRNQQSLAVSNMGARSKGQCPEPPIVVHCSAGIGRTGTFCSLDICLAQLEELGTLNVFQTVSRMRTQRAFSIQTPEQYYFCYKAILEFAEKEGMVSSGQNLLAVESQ
Sequence of SHP2 (Q06124 whole entry, species assumed): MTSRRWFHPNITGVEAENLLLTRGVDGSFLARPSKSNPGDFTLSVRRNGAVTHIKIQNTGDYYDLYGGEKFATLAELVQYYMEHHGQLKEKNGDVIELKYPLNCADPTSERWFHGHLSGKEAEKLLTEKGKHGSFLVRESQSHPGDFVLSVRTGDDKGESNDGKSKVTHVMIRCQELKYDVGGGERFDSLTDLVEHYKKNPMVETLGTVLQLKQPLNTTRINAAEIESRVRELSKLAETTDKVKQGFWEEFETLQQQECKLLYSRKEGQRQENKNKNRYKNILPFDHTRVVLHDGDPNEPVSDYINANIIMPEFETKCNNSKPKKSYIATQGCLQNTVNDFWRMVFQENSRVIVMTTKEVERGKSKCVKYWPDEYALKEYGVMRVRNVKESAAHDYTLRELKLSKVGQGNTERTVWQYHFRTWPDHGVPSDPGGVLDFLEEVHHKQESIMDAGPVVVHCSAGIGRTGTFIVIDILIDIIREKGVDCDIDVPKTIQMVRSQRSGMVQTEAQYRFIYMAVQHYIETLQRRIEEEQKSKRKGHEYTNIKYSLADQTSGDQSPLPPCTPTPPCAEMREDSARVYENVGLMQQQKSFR
Sequence of SHP2-D2C (Q06124 224-528 limits assumed): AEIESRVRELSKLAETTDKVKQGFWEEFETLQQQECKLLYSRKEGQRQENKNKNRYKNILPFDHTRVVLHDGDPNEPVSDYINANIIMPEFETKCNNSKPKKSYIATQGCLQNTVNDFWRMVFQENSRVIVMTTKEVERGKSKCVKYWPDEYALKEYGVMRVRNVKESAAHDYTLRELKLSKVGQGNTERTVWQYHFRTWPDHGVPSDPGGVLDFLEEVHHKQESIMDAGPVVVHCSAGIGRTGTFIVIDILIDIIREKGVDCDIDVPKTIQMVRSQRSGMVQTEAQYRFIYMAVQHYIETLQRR

SMILES | IC50 (VHX) | IC50 (Meg2) | IC50 (LMWPTP) | IC50 (PTP1B) | IC50 (CD45) | IC50 (SHP2) | IC50 (FAP1) | IC50 (SHP2-D2C) | IC50 (HePTP)
O=C(O)c1cc2c(C#Cc3cccc(C(F)(F)F)c3)c(-c3ccccc3)oc2cc1O [32 (L01Z08)] | 1.4 ± 0.2 µM | 4.3 ± 0.5 µM | 4.3 ± 0.6 µM | 6.7 ± 0.7 µM | 4.2 ± 0.5 µM | 1.8 ± 0.2 µM | 1.3 ± 0.2 µM | – | –
Cn1c(-c2ccccc2C(F)(F)F)c(I)c2cc(C(=O)O)c(O)cc21 [Compound 207a, 6-hydroxy-3-iodo-1-methyl-2-(2-(trifluoromethyl)phenyl)-1H-indole-5-carboxylic acid] | 56 ± 1 µM | – | – | 700 ± 100 µM | 227 ± 4 µM | – | 84 ± 1 µM | 87 ± 4 µM | 86 ± 6 µM
